Key:
[1] = biological target: Tyrosine-protein kinase SYK (Homo sapiens) (UniProt P43405); assay: Inhibition of recombinant full length human GST-tagged SYK expressed in baculovirus expression system at 0.1 uM using tyrosine-2 peptide as substrate incubated for 60 mins by Z'-LYTE assay relative to control
[2] = biological target: Epithelial discoidin domain-containing receptor 1 (Homo sapiens) (UniProt Q08345); assay: Inhibition of tracer 178 binding to recombinant human GST-tagged DDR1 catalytic domain (440 to 876 residues) expressed in baculovirus expression system at 0.1 uM measured after 60 mins by Lanthascreen assay relative to control
[3] = biological target: Protein kinase C delta type (Homo sapiens) (UniProt Q05655); assay: Inhibition of recombinant full length human GST-tagged PKCdelta expressed in insect expression system at 0.1 uM using serine/threonine-7 peptide as substrate incubated for 60 mins by Z'-LYTE assay relative to control
[4] = biological target: Serine/threonine-protein kinase SIK2 (Homo sapiens) (UniProt Q9H0K1); assay: Inhibition of recombinant full length human GST-tagged SIK2 expressed in baculovirus expression system at 0.1 uM using serine/threonine-25 peptide as substrate incubated for 60 mins by Z'-LYTE assay relative to control
[5] = biological target: CDK17/Cyclin-Y (Homo sapiens) (UniProt Q00537+Q8ND76); assay: Inhibition of recombinant full length human GST-tagged CDK17/Cyclin Y (2 to end amino acids) expressed in insect expression system at 0.1 uM using serine/threonine-12 peptide as substrate incubated for 60 mins by Z'-LYTE assay relative to control
Chain of CDK17/Cyclin-Y (Homo sapiens) (Q00537 whole entry): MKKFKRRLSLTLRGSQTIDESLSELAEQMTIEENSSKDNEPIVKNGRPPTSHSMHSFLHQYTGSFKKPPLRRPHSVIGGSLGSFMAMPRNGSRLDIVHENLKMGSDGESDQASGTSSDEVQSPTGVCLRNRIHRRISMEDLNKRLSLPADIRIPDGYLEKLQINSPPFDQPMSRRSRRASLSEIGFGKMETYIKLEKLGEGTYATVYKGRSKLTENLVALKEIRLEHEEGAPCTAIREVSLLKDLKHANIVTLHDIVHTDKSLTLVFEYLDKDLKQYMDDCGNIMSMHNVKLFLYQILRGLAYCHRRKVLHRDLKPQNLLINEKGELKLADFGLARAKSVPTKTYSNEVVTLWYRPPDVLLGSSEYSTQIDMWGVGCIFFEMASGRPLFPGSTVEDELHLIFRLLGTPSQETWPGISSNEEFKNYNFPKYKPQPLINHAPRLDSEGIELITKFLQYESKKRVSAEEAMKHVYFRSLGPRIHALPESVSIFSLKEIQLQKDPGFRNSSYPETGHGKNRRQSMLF
Chain of CDK17/Cyclin-Y (Homo sapiens) (Q8ND76 2-341 partner limits assumed): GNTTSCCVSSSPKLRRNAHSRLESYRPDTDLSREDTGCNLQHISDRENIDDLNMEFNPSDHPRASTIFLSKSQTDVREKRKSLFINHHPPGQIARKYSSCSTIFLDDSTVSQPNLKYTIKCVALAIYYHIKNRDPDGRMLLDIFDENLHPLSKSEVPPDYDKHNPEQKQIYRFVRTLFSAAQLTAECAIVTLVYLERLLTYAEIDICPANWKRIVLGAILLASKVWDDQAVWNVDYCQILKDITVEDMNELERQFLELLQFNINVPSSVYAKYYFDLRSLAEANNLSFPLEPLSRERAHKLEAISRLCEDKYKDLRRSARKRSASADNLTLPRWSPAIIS

[6] = biological target: Serine/threonine-protein kinase BRSK1 (Homo sapiens) (UniProt Q8TDC3); assay: Inhibition of recombinant full length human GST-tagged BRSK1 expressed in baculovirus expression system at 0.1 uM using serine/threonine-21 peptide as substrate incubated for 60 mins by Z'-LYTE assay relative to control
Chain of Serine/threonine-protein kinase BRSK1 (Homo sapiens) (Q8TDC3 whole entry): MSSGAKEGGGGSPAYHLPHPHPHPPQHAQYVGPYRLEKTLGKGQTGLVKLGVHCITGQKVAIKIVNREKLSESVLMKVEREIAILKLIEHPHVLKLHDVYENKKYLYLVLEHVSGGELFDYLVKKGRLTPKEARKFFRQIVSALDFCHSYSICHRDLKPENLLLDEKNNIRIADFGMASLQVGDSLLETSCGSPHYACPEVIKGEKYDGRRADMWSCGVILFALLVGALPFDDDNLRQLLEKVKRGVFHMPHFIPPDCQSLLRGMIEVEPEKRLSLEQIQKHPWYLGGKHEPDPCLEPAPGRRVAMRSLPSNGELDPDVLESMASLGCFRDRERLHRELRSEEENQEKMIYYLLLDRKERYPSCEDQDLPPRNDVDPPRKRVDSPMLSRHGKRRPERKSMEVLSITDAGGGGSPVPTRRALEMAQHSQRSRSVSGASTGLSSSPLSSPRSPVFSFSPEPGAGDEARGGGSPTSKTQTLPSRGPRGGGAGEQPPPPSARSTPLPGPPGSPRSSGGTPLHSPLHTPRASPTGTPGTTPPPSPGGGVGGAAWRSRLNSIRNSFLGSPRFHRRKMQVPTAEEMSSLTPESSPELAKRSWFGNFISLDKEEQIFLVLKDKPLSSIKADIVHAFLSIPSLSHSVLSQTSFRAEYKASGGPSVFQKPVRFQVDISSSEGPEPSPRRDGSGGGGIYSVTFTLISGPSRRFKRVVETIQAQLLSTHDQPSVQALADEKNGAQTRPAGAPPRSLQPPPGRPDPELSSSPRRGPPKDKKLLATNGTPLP

[7] = biological target: Tyrosine-protein kinase ZAP-70 (Homo sapiens) (UniProt P43403); assay: Inhibition of recombinant full length human His-tagged ZAP70 expressed in baculovirus expression system at 0.1 uM using tyrosine-7 peptide as substrate incubated for 60 mins by Z'-LYTE assay relative to control
[8] = biological target: Megakaryocyte-associated tyrosine-protein kinase (Homo sapiens) (UniProt P42679); assay: Inhibition of recombinant full length human His-tagged HYL expressed in Escherichia coli expression system at 0.1 uM using tyrosine-1 peptide as substrate incubated for 60 mins by Z'-LYTE assay relative to control
[9] = biological target: Serine/threonine-protein kinase PLK2 (Homo sapiens) (UniProt Q9NYY3); assay: Inhibition of recombinant full length human GST-tagged PLK2 expressed in baculovirus expression system at 0.1 uM using serine/threonine-16 peptide as substrate incubated for 60 mins by Z'-LYTE assay relative to control
[10] = biological target: Tyrosine-protein kinase Tec (Homo sapiens) (UniProt P42680); assay: Inhibition of tracer 178 binding to recombinant full length human His-tagged TEC expressed in baculovirus expression system at 0.1 uM measured after 60 mins by Lanthascreen assay
[11] = biological target: Protein kinase C alpha type (Homo sapiens) (UniProt P17252); assay: Inhibition of recombinant human GST-tagged PKCalpha expressed in insect expression system at 0.1 uM using serine/threonine-7 peptide as substrate incubated for 60 mins by Z'-LYTE assay relative to control
[12] = biological target: RAC-alpha serine/threonine-protein kinase (Homo sapiens) (UniProt P31749); assay: Inhibition of recombinant full length human His-tagged AKT1 expressed in baculovirus expression system at 0.1 uM using serine/threonine-06 peptide as substrate incubated for 60 mins by Z'-LYTE assay relative to control
[13] = biological target: Mitogen-activated protein kinase kinase kinase kinase 4 (Homo sapiens) (UniProt O95819); assay: Inhibition of recombinant human GST-tagged MAP4K4 catalytic domain (1 to 328 residues) expressed in baculovirus expression system at 0.1 uM using serine/threonine-7 peptide as substrate incubated for 60 mins by Z'-LYTE assay relative to control
[14] = biological target: Serine/threonine-protein kinase PAK 1 (Homo sapiens) (UniProt Q13153); assay: Inhibition of recombinant full length human GST-tagged PAK1 expressed in baculovirus expression system at 0.1 uM using serine/threonine-19 peptide as substrate incubated for 60 mins by Z'-LYTE assay relative to control
[15] = biological target: Calcium/calmodulin-dependent protein kinase type 1 (Homo sapiens) (UniProt Q14012); assay: Inhibition of recombinant full length human His-tagged CAMK1 expressed in baculovirus expression system at 0.1 uM using ZIPtide peptide as substrate incubated for 60 mins by Adapta assay relative to control
Chain of Calcium/calmodulin-dependent protein kinase type 1 (Homo sapiens) (Q14012 whole entry, looked up): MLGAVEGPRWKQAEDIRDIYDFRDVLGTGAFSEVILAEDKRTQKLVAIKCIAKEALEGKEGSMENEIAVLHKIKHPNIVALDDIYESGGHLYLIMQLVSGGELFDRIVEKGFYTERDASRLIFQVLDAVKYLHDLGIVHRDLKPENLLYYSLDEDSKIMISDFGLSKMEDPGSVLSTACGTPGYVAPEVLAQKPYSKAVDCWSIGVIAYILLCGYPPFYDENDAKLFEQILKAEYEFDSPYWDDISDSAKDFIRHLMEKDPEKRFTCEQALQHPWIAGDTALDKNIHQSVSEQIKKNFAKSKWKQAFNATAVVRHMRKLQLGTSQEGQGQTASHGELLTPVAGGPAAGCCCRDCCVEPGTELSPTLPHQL

[16] = biological target: Serine/threonine-protein kinase 4 (Homo sapiens) (UniProt Q13043); assay: Inhibition of recombinant full length human GST-tagged MST1 expressed in baculovirus expression system at 0.1 uM using serine/threonine-7 peptide as substrate incubated for 60 mins by Z'-LYTE assay relative to control
[17] = biological target: Interleukin-1 receptor-associated kinase 1 (Homo sapiens) (UniProt P51617); assay: Inhibition of recombinant human GST-tagged IRAK1 catalytic domain (194 to 712 residues) expressed in baculovirus expression system at 0.1 uM using Histone H3 (1-20) peptide as substrate incubated for 60 mins by Adapta assay relative to control
[18] = biological target: Wee1-like protein kinase (Homo sapiens) (UniProt P30291); assay: Inhibition of tracer 178 binding to recombinant full length human GST-tagged WEE1 expressed in baculovirus expression system at 0.1 uM measured after 60 mins by Lanthascreen assay relative to control
[19] = biological target: Macrophage-stimulating protein receptor (Homo sapiens) (UniProt Q04912); assay: Inhibition of recombinant human GST-tagged RON catalytic domain (983 to 1400 residues) expressed in baculovirus expression system at 0.1 uM using tyrosine-6 peptide as substrate incubated for 60 mins by Z'-LYTE assay relative to control
[20] = biological target: Proto-oncogene tyrosine-protein kinase ROS (Homo sapiens) (UniProt P08922); assay: Inhibition of recombinant human GST-tagged ROS1 catalytic domain (1883 to 2347 residues) expressed in baculovirus expression system at 0.1 uM using tyrosine-2 peptide as substrate incubated for 60 mins by Z'-LYTE assay relative to control
Chain of Proto-oncogene tyrosine-protein kinase ROS (Homo sapiens) (P08922 whole entry, the tested form may be a part): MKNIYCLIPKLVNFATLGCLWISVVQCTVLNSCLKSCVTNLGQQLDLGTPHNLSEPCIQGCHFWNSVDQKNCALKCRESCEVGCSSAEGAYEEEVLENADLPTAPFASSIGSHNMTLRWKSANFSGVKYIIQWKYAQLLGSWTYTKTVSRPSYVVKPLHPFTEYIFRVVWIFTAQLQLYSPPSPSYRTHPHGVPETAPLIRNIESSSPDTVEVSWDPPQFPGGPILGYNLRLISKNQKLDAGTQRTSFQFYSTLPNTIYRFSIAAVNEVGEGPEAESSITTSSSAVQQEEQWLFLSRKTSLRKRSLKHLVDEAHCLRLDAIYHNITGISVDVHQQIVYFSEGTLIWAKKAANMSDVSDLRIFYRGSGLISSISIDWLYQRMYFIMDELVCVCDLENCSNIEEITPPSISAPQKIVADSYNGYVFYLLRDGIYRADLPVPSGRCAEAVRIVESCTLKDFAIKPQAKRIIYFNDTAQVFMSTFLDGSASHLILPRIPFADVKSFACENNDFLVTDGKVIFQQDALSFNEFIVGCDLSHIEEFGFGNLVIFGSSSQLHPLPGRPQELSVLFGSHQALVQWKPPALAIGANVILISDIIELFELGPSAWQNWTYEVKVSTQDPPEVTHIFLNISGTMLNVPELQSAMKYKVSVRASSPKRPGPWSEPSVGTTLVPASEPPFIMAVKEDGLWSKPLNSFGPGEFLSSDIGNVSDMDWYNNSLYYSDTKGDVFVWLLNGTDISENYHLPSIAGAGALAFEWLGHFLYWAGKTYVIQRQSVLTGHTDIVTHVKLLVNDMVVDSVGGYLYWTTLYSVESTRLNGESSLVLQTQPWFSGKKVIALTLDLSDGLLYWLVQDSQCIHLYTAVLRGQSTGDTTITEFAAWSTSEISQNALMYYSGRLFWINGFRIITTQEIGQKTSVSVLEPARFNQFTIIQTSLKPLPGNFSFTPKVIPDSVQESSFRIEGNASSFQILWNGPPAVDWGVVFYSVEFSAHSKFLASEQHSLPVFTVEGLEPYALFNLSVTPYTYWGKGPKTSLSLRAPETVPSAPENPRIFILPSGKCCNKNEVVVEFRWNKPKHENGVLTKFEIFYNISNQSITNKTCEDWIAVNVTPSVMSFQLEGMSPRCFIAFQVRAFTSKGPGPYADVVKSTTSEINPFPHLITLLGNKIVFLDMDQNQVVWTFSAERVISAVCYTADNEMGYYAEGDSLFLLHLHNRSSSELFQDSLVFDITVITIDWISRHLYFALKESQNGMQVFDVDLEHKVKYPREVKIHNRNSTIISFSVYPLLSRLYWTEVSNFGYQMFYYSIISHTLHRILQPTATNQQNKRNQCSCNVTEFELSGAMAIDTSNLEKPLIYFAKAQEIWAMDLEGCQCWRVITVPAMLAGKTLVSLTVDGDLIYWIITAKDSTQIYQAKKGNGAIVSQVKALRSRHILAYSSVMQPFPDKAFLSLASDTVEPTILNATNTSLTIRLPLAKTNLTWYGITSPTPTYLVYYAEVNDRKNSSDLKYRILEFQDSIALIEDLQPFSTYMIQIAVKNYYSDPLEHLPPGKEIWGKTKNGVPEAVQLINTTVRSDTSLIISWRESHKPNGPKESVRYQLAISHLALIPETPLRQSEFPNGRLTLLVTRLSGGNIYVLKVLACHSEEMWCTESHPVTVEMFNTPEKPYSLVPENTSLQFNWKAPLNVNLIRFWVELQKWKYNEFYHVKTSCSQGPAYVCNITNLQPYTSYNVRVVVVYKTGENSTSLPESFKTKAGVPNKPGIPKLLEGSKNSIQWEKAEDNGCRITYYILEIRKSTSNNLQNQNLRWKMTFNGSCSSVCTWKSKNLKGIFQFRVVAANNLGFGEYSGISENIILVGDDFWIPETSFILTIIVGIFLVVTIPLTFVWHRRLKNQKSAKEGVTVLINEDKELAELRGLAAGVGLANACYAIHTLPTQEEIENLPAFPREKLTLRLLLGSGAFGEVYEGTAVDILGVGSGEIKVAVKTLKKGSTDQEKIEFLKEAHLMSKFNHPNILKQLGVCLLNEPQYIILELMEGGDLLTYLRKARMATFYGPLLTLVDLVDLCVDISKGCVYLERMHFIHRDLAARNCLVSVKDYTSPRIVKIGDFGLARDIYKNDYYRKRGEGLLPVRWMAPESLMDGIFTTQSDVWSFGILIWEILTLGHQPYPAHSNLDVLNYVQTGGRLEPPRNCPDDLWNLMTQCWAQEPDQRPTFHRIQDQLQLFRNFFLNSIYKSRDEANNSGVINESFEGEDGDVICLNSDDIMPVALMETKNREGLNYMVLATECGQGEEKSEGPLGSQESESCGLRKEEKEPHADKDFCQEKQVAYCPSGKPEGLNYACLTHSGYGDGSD

[21] = biological target: Protein kinase C beta type (Homo sapiens) (UniProt P05771); assay: Inhibition of recombinant full length human GST-tagged PKCbeta1 expressed in insect expression system at 0.1 uM using serine/threonine-7 peptide as substrate incubated for 60 mins by Z'-LYTE assay relative to control
[22] = biological target: Casein kinase I isoform gamma-2 (Homo sapiens) (UniProt P78368); assay: Inhibition of recombinant full length human His-tagged CK1 gamma 2 expressed in baculovirus expression system at 0.1 uM using serine/threonine-5 peptide as substrate incubated for 60 mins by Z'-LYTE assay relative to control
[23] = biological target: Serine/threonine-protein kinase NLK (Homo sapiens) (UniProt Q9UBE8); assay: Inhibition of tracer 178 binding to recombinant full length human GST-tagged NLK expressed by baculovirus expression system at 0.1 uM measured after 60 mins by Lanthascreen assay relative to control
Chain of Serine/threonine-protein kinase NLK (Homo sapiens) (Q9UBE8 whole entry): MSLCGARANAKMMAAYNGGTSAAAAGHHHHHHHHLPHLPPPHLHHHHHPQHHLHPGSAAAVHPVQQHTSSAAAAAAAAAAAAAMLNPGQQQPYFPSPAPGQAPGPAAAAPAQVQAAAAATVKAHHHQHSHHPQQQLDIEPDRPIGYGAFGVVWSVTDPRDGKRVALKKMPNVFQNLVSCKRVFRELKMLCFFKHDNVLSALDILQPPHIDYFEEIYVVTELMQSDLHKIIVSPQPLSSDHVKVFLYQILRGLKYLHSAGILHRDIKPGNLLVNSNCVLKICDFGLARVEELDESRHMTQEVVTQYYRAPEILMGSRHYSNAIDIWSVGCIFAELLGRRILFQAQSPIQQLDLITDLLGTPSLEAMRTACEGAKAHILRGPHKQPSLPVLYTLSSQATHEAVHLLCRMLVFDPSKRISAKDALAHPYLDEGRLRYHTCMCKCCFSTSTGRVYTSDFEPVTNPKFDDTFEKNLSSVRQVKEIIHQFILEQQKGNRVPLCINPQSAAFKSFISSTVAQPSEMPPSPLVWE

Row | Structure (SMILES) | inhibition [1] [%] | inhibition [2] [%] | inhibition [3] [%] | inhibition [4] [%] | inhibition [5] [%] | inhibition [6] [%] | inhibition [7] [%] | inhibition [8] [%] | inhibition [9] [%] | inhibition [10] [%] | inhibition [11] [%] | inhibition [12] [%] | inhibition [13] [%] | inhibition [14] [%] | inhibition [15] [%] | inhibition [16] [%] | inhibition [17] [%] | inhibition [18] [%] | inhibition [19] [%] | inhibition [20] [%] | other results
1 | CCN1CC2(C1)CN(c1ccc(Nc3ncc(F)c(-c4cnn5c4[C@H](C)CCCC5)n3)nc1)C2 | -3 | 0 | 23.5 | 26.5 | 61.5 | 44 | 7 | -0.5 | 3 | 5 | 33 | 2 | 39 | 15.5 | 10.5 | 8 | 48.5 | 11 | 7 | 57.5 | inhibition [21]: 4.5%; inhibition [22]: 3.5%; inhibition [23]: 22.5%
2 | CCN1CCN(Cc2ccc(Nc3ncc(F)c(-c4cc(F)c5nc(C)n(C(C)C)c5c4)n3)nc2)CC1 [ABEMACICLIB] | 6 | 8.7 | 48.5 | 6 | 58 | 18 | -0.5 | 0 | 0.5 | 0.8 | 77.5 | 6.5 | 89.5 | 3.5 | 26.7 | 1.5 | 99.8 | 5.5 | 10.5 | 59.5 | inhibition [21]: 38%; inhibition [22]: 7%; inhibition [23]: 2.2%
